Columns and labels:
[1] = target: T1, recombinant human enzyme CK-1δ (Homo sapiens, UniProt P48730); experiment: Enzyme inhibition assay, Luminometer Kinase-GLO method, CK-1δ; type: biochemical; conditions: casein substrate, 4 μM ATP, 60 minutes at 30° C.; read-out: Inhibitory Concentration 50 (IC50) CK-1δ
T1 construct: purchased Millipore Iberica SAU
Procedure: (§1) Enzyme inhibition assays were performed using the Luminometer Kinase-GLO® method. Recombinant human enzyme CK-1δ was purchased from Millipore Iberica SAU and recombinant human enzyme CK-1ε was purchased from Invitrogen. The phosphorylation substration chosen was casein. The Luminescent Kinase Kit (catalogue no. V6711) was obtained from Promega. ATP and other reagents were purchased from Sigma-Aldrich (St. Louis, Mo.).
(§2) The assays were conducted in buffer using 96-well plates. In a typical assay: 10 μL of the test compound (dissolved in dimethylsulfoxide at a concentration of 1 mM and, in turn, dissolved in buffer to the required concentration for the experiment) and 10 μL (16 ng) of the CK-1δ enzyme or 10 μL (50 ng) of the CK-1ε enzyme row were added to each well followed by 20 μL of buffer containing 0.1% casein as substrate and 4 μM of ATP. The assay buffer contained: 50 mM HEPES, pH 7.5; 0.01% Brij-35; 10 mM MgCl2; 1 mM EGTA and 0.01% NaN3. […] After incubating for 60 minutes at 30° C., the enzymatic reaction was stopped using 40 μL of Kinase-GLO® reagent. Luminescence was measured after ten minutes using a FLUOstar Optima (BMG Labtechnologies GmbH, Offenburg, Germany) multimode reader. The activity was proportional to the difference between the total and consumed ATP. Inhibition activities were calculated in accordance with the maximum activity measured in the absence of inhibitor. IC50 is defined as the concentration of each compound that reduces enzyme activity by 50% with respect to that obtained without inhibitor.

[2] = target: T2, recombinant human enzyme CK-1ε (Homo sapiens, UniProt P49674); experiment: Enzyme inhibition assay, Luminometer Kinase-GLO method, CK-1ε; type: biochemical; conditions: for IC50: casein substrate, 4 μM ATP, 60 minutes at 30° C., read-out: Inhibitory Concentration 50 (IC50) CK-1ε
T2 construct: purchased Invitrogen
T2 sequence (P49674 whole entry): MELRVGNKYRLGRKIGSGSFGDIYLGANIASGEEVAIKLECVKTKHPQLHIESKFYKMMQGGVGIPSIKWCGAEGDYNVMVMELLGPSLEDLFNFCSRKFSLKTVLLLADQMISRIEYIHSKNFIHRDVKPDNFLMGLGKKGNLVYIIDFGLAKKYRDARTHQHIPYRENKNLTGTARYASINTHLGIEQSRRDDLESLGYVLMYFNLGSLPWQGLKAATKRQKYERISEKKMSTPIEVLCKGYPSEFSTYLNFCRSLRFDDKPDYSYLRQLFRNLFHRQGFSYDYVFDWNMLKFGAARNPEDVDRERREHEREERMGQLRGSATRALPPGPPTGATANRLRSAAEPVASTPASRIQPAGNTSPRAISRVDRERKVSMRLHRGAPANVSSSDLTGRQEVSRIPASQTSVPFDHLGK
Procedure: as §1, §2

in vitro = conditions: pig, pH 7.4; for Papp at […]: PAMPA
Procedure: To filter the samples, PVDF membrane filters (diameter: 30 mm, pore size: 0.45 μm) were used.
Ten reference compounds were selected, whose blood-brain barrier passage is known and public, in order to validate the experiment. […] The solutions were filtered. Next, 180 μL of a PBS/ethanol (70/30) solution were added to each well of the acceptor plate. The donor plate was impregnated with 4 μL of a porcine brain lipid solution dissolved in dodecane (20 mg mL^−1). After 5 min, 180 μL of dissolution of each compound were added to this plate. Of the compounds whose penetration into the central nervous system was to be assessed, between 1-2 mg were taken and dissolved in 1,500 μL of ethanol and 3,500 μL of PBS (pH=7.4), filtered and added to the donor 96-well plate. The donor plate was then placed on the acceptor forming a kind of “sandwich” and allowed to incubate for 2 hours and 30 min at 25° C. The compounds, by passive transport, will move from the donor plate through the porcine brain lipid to the acceptor plate. After 2 hours and 30 min, it was carefully removed from the donor plate. The concentration and absorbance, both of the commercial compounds and the synthesised derivatives evaluated in the acceptor and donor plates were determined using a UV absorbance reader. Each sample was analysed at different wavelengths (3 to 5) in three wells and in at least two independent experiments.

[3] = literature value, Di et al, 2003; cited from earlier work

T1 sequence (P48730 whole entry): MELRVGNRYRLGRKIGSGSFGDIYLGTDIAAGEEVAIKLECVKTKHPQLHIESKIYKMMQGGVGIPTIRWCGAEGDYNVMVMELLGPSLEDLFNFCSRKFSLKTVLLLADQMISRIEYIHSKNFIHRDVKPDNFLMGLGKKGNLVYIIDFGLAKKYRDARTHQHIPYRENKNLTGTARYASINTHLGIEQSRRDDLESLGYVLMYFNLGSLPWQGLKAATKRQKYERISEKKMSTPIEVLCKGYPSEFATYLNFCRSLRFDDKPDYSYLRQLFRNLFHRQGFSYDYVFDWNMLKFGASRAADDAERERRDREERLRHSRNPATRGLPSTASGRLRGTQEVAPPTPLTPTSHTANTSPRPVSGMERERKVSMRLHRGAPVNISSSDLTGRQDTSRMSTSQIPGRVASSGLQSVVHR

O=C(Cc1ccc(Cl)cc1)Nc1nc2ccc(C(F)(F)F)cc2s1 [Compound 1, N-(6-trifluoromethylbenzothiazole-2-yl)-2-(4-chlorophenyl)acetamide]
IC50 [1]: 0.065 µM | IC50 [2]: 0.55 µM | Papp at […] (in vitro): 96 ± 1 nm/s

COc1ccc(CC(=O)Nc2nc3ccc(C(F)(F)F)cc3s2)cc1 [Compound 3, N-(6-trifluoromethylbenzothiazole-2-yl)-2-(4-methoxyphenyl)acetamide]
IC50 [1]: 0.033 µM | IC50 [2]: 0.7 µM | Papp at […] (in vitro): 146 ± 1 nm/s

O=C(Cc1cccc(Cl)c1)Nc1nc2ccc(C(F)(F)F)cc2s1 [Compound 4, N-(6-trifluoromethylbenzothiazole-2-yl)-2-(3-chlorophenyl)acetamide]
IC50 [1]: 0.023 µM | IC50 [2]: 0.84 µM | Papp at […] (in vitro): 59 ± 5 nm/s

Cc1ccc2nc(NC(=O)Cc3cccc(Cl)c3)sc2c1 [Compound 5, N-(6-methylbenzothiazole-2-yl)-2-(3-chlorophenyl)acetamide]
IC50 [1]: 0.083 µM | IC50 [2]: 0.88 µM | Papp at […] (in vitro): 56 ± 8 nm/s

COc1cccc(CC(=O)Nc2nc3ccc(C(F)(F)F)cc3s2)c1 [Compound 6, N-(6-trifluoromethylbenzothiazole-2-yl)-2-(3-methoxyphenyl)acetamide]
IC50 [1]: 0.042 µM | IC50 [2]: 0.69 µM | Papp at […] (in vitro): 112 ± 20 nm/s

COc1ccccc1CC(=O)Nc1nc2ccc(C(F)(F)F)cc2s1 [Compound 8, N-(6-trifluoromethylbenzothiazole-2-yl)-2-(2-methoxyphenyl)acetamide]
IC50 [1]: 0.01 µM | IC50 [2]: 0.8 µM | Papp at […] (in vitro): 113 ± 21 nm/s

COc1cc(CC(=O)Nc2nc3ccc(C(F)(F)F)cc3s2)cc(OC)c1OC [Compound 10]
IC50 [1]: 0.015 µM | IC50 [2]: 0.37 µM | Papp at […] (in vitro): 106 ± 1 nm/s

O=C(Cc1ccccc1)Nc1nc2ccc(C(F)(F)F)cc2s1 [Compound 12, N-(6-trifluoromethylbenzothiazole-2-yl)-2-phenylacetamide]
IC50 [1]: 0.047 µM | IC50 [2]: 0.76 µM | Papp at […] (in vitro): 104 ± 39 nm/s

O=C(Cc1ccccc1)Nc1nc2ccccc2s1 [Compound 14, N-(benzothiazole-2-yl)-2-phenylacetamide]
IC50 [1]: 0.33 µM | IC50 [2]: 2.31 µM | Papp at […] (in vitro): 127 ± 12 nm/s

O=C(Cc1cccc(Cl)c1)Nc1nc2ccccc2s1 [Compound 20, N-(benzothiazole-2-yl)-2-(3-chlorophenyl)acetamide]
IC50 [1]: 0.85 µM | IC50 [2]: 2.86 µM | Papp at […] (in vitro): 106 ± 3 nm/s

COc1ccccc1CC(=O)Nc1nc2ccc(C)cc2s1 [Compound 30, N-(6-methylbenzothiazole-2-yl)-2-(2-methoxyphenyl)acetamide]
IC50 [1]: 0.29 µM | IC50 [2]: 4.93 µM | Papp at […] (in vitro): 62 ± 5 nm/s

COc1ccc2nc(NC(=O)Cc3ccccc3OC)sc2c1 [Compound 51, N-(6-methoxybenzothiazole-2-yl)-2-(2-methoxyphenyl)acetamide]
IC50 [1]: 2.22 µM | inhibition at 10 µM [2]: 33% | Papp at […] (in vitro): 112 ± 9 nm/s

CN1C(C(=O)Nc2ccccn2)=C(O)c2ccccc2S1(=O)=O [Piroxicam, reference compound]
Pe (10^−6 cm s^−1) PAMPA-blood-brain barrier permeation (in vitro; […]): 0.2 ± 0.1 10^−6 cm s^−1 | Bibl. PAMPA-blood-brain barrier permeation (Pe) [3]: 2.5 10^−6 cm s^−1

CN(C)CCCN1c2ccccc2Sc2ccccc21 [Promazine, reference compound]
Papp at […] (in vitro): 85 ± 1 nm/s | Bibl. PAMPA-blood-brain barrier permeation (Pe) [3]: 8.8 10^−6 cm s^−1

Reference: patent US9592224B2, “Substituted benzothiazoles and therapeutic uses thereof for the treatment of human diseases” (CONSEJO SUPERIOR DE INVESTIGACIONES CIENTÍFICAS, priority 2013, dated 2017)
